In US10399949B2, “NK1 receptor antagonist” (KISSEI PHARMACEUTICAL CO., LTD., priority 2015, dated 2019):

What was measured:
human CYP3A4 = target: T1, human CYP3A4 (Homo sapiens, UniProt P08684); experiment: Inhibitory effect on CYP3A4 (Luciferin-IPA); format: in vitro ADME; details: test compound 10 μM, 30-minutes pre-incubation, Luciferin-IPA 3 μM
T1 construct: purchased BD Biosciences
Protocol: Inhibitory Effect on CYP3A4
The dimethyl sulfoxide (DMSO) solution of the test compound with a concentration 1000 times higher than the evaluation concentration was prepared, and a reaction solution was prepared by diluting the solution. Enzyme reaction was performed by incubating in a potassium phosphate buffer solution (pH 7.4) containing 1 μM to 10 μM test compound, 3.2 mM magnesium chloride, 0.2 pmol human CYP3A4 (BD Biosciences), 0.5 mM reduced nicotinamide adenine dinucleotide phosphate (NADPH) and 3 μM Luciferin-IPA (Promega) at 37° C. for 10 minutes. The volume of the reaction solution was 50 μL/well. The 30-minutes pre-incubation group was incubated at 37° C. for 30 minutes before adding the substrate, the Luciferin-IPA solution (12.5 μL/well). At the end of the enzyme reaction, 50 μL/well of a Luciferin detection reagent (Promega) was added to the wells, and the plate was left at room temperature for 20 minutes. Then, the emission intensities were measured with Infinite M1000 (TECAN), and the enzyme activities (%) relative to the value of the group to which the test compound was not added. As a comparative example, aprepitant, which is an NK1 receptor antagonist, was tested in the same manner.
Test was measured by the above test method, and the results are shown in Table 9 when the concentration of the test compound was 10 μM. In the table, Ex. No. means the Example number, and Pre-incubation (30 min) (%) means the enzyme activities (%) of the 30-minutes pre-incubation groups using the test compounds.

human NK1 receptor = target: T2, human NK1 receptor (Homo sapiens, UniProt P25103); experiment: Inhibitory effect on human NK1 receptor (substance P-induced increase in intracellular calcium concentration); format: cell-based; details: HEK-293T; substance P 0.1 μM; compound 1 μM; human NK1 receptor-expressing 293T cells; vehicle = 100%; read-out: SPRR (%) (Substance P-Response Remaining, intracellular calcium concentration)
T2 construct: expressed in transfected cells; host or cells: 293T cells (RIKEN), transient transfection with pcDNA3.1(-) plasmid
T2 sequence (P25103 whole entry): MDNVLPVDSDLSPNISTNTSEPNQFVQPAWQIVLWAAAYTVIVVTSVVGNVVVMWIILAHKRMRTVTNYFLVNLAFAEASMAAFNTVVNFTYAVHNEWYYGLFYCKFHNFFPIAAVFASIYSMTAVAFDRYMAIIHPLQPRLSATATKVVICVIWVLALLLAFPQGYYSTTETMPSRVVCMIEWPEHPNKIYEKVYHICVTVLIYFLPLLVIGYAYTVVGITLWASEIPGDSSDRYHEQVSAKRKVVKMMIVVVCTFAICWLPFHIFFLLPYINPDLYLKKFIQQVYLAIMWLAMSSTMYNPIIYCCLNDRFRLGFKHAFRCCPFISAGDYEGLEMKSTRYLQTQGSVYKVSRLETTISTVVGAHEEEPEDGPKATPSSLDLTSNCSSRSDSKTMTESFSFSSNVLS
Protocol: Inhibitory Effect on Human NK1 Receptor
(1) Preparation of Human NK1 Receptor-Expressing Cells
Human NK1 receptor-expressing cells were prepared by the same methods as those described in 2-3 and 2-4 of Test Example 1.
(2) Study on Inhibitory Effect on Increase in Intracellular Calcium Concentration
The human NK1 receptor-expressing cells were washed with 300 μL/well of a washing solution (20 mM HEPES/Hanks Balanced Salt Solution (HBSS) pH7.3). A fluorescent calcium indicator (Fluo-4 Direct Calcium Assay Kit, Life Technologies, containing 0.42 mM probenecid and 0.1% bovine serum albumin, prepared according to the protocol of the product) was added to the wells at 150 μL/well, and the plate was incubated at 37° C. for 30 minutes in an incubator. Then, DMSO solutions of a test compound, which were prepared at an 80-time higher concentration using 100% dimethyl sulfoxide (DMSO), were added to the wells at 2.5 μL/well (final concentrations of 0.1, 1 and 10 μM), and the solutions were mixed. Then, the plate was further incubated at 37° C. for 30 minutes in an incubator. After 30 minutes, the intracellular calcium concentrations were measured immediately.
The intracellular calcium concentrations were each measured as a fluorescent signal using FDSS® 7000 (Hamamatsu Photonics). A substance P (Peptide Institute, Inc.) solution which was prepared at 0.4 μM or 4 μM using an assay buffer (20 mM HEPES/Hanks Balanced Salt Solution (HBSS) pH 7.3 containing 0.1% bovine serum albumin) was added automatically to each well at 50 μL/well (final concentration of 0.1 or 1 μM) 10 seconds after starting reading, and the fluorescent signal was measured up to 120 seconds.
The intracellular calcium concentration (%) of the cells to which a test compound was added was calculated by the equation below, where the fluorescent signal of the group to which the vehicle (DMSO) was added was regarded as 100%, and the fluorescent signal before the addition of substance P was regarded as 0%. Intracellular calcium concentration (%)=(Fluorescent signal of test compound addition group)/(Fluorescent signal of vehicle addition group)×100
The intracellular calcium concentration (%) calculated was regarded as the remaining agonist activity of substance P (Substance P-Response Remaining: SPRR). In the table, Ex. No. means the Example number. SPRR (%) means the value obtained when the concentration of substance P was 0.1 μM and the concentration of the compound was 1 μM.

[1] = Measurement of drug concentrations in the brain after foot-tapping test; format: in vivo; details: male gerbil; 0.3 mg/kg from the jugular vein; brain extracted after foot-tapping was finished; LC/MS
Protocol: A male gerbil (Japan SLC) was anesthetized with isoflurane, and 0.3 mg/kg of a test compound was administered from the jugular vein. After 4 hours, GR73632 (5 pmol/5 μL saline), which is an NK1 receptor agonist, was administered into the cerebral ventricle at the part 1 mm lateral to and 4.5 mm below the bregma in the head, under anesthesia with isoflurane. After the administration, the gerbil was moved to an observation cage, and the foot-tapping period during 30 minutes after the recovery of the righting reflex was measured. As a comparative example, aprepitant, which is an NK1 receptor antagonist, was tested in the same manner. The foot-tapping inhibition rate (%) of each test compound was calculated by the following equation. Foot-tapping inhibition rate (%)={1−(Foot-tapping period when test compound was administered)/(Foot-tapping period when solvent was administered)}×100 (2) Measurement of Drug Concentrations
After foot-tapping was finished, laparotomy was performed immediately under anesthesia with ether, and a blood sample was taken from the abdominal vena cava. At the same time, the brain was extracted. Through a quantitative analysis using liquid chromatography-mass spectrometry (LC/MS), the concentrations of the test compound in the plasma and the brain were measured.
In the table, Ex. No. means the Example number. […]

T1 sequence (P08684 whole entry): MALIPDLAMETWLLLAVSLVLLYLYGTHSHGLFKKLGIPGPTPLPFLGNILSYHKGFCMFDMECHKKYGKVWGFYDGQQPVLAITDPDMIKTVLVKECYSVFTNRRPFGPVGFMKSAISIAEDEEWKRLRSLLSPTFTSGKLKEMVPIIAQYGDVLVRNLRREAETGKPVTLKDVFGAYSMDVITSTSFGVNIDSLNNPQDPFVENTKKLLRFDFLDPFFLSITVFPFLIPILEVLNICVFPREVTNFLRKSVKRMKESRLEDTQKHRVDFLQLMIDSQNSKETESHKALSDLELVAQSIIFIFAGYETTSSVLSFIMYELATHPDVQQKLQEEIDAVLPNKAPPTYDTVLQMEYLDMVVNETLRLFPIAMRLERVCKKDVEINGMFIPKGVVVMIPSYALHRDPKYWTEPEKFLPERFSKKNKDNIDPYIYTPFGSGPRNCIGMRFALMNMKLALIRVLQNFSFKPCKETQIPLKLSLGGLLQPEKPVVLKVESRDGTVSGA

SMILES	Preincubation (30 min) (%) (enzyme activities relative to group without test compound) (human CYP3A4)	remaining activity at 1 µM (human NK1 receptor) [%]	Conc. (nM) (drug concentration in the brain) [1]
Cc1cc(F)ccc1[C@H]1CN(C[C@H]2CC[C@@H](CC(=O)O)CC2)CCN1C(=O)N(C)[C@H](C)c1cc(C(F)(F)F)cc(C(F)(F)F)c1 [Example 4, cis-{4-[(S)-4-{[(R)-1-(3,5-Bistrifluoromethylphenyl)ethyl]methylcarbamoyl}-3-(4-fluoro-2-methylphenyl)piperazin-1-ylmethyl]cyclohexyl}acetic acid]	18	2.1	162
Cc1cc(F)ccc1[C@H]1CN(C[C@H]2CC[C@H](CC(=O)O)CC2)CCN1C(=O)N(C)[C@H](C)c1cc(C(F)(F)F)cc(C(F)(F)F)c1 [Example 5, trans-{4-[(S)-4-{[(R)-1-(3,5-Bistrifluoromethylphenyl)ethyl]methylcarbamoyl}-3-(4-fluoro-2-methylphenyl)piperazin-1-ylmethyl]cyclohexyl}acetic acid]	21	8.9	181
